# Reference: PMC5988308, “Rhodanine derivatives as potent anti-HIV and anti-HSV microbicides” (PLoS ONE, 2018)
# Several values for one entry are separate records, joined by “and”; a condition that tells them apart may be missing. Equal entries are not always repeated. Where two headings read alike, the source gives them in different places.
# Tests used:
# [1] = test system: HIV-1 AD8 (CCR5-tropic strain); assay: Antiviral activity on TZM-bl cells infected with HIV-1 AD8 (CPRG assay); type: cell-based; settings: Human immunodeficiency virus 1, TZM-bl cells
# Experimental: (§1) The human TZM-bl indicator cell line (obtained from the NIH AIDS reagents program, cat. Nr 8129 (www.aidsreagent.org) and maintained at 37°C and 5% CO2 in Dulbecco’s modified Eagle’s medium (DMEM) medium containing 10% fetal bovine serum, 50 μg/mL penicillin, and 50 μg/mL streptomycin. The HIV-1 laboratory strains NL(AD8) (NIH AIDS reagents program, cat.nr 11346), NL4.3 (NIH AIDS reagents program, cat. Nr. 114) were titrated as previously reported. Briefly, serial 5-fold dilutions of each virus were made in quadruplicate wells in 96-well culture plates, in a total volume of 100 μL of growth medium (DMEM), for a total of 8 dilution steps. Freshly trypsinized cells (20,000 cells in 100 μL of growth medium containing 75 μg/mL DEAE-dextran) were added to each well, and the plates were incubated at 37°C in a humidified 5% CO2-95% air environment. After 48 h of incubation, the medium was removed and viral infection was quantified using a β-galactosidase (CPRG) assay (Roche). Twenty thousand TZM-bl cells/well were seeded in 96-well plates in complete DMEM supplemented with 30 μg/mL DEAE-dextran (Sigma-Aldrich). Three hundred times the 50% tissue culture infective dose (TCID50)/mL of each strain was pretreated for 1 h at 37°C with six serial dilutions ([…] to 3.2 nM) of each compound and then added to the cells, as previously described. Vehicle (0.1% dimethyl sulfoxide [DMSO])-treated cells served as a negative control. […] After 2 days, viral infection was quantified using a CPRG assay (Roche). The inhibitory curves were fitted by nonlinear regression, allowing for the calculation of the 50% inhibitory concentration (IC50) using the Prism software. To evaluate the cell toxicity of the compounds, the metabolic XTT [2,3-bis-(2-methoxy-4-nitro-5-sulfophenyl)-2H-tetrazolium-5-carboxanilide] test (Sigma-Aldrich) was performed according to the manufacturer’s instructions.
# [2] = Aqueous (thermodynamic) solubility; type: physicochemical; settings: thermodynamic from solid, water, 20°C, read-out: Water Solub.
# Experimental: Each solid compound (1 mg) was added to 1 mL of water. Each sample was mixed at 20°C, in a shaker water bath for 24 h. The resulting suspension was filtered through a 0.45 μm nylon filter (Acrodisc). The concentration of solubilized compounds weres determined by UV/LC-MS (performed in triplicate) by comparison with the appropriate calibration curve that was obtained from samples of the compound dissolved in methanol at different concentrations.
# [3] = test system: HSV-2; assay: HSV-2 plaque reduction assay on Vero cells; type: cell-based; settings: for EC50 / EC90: Human alphaherpesvirus 2, Vero; for EC50: read-out: HSV-2 EC50; for EC90: read-out: HSV-2 EC90; for SI (CC50/EC50), HSV-2: Vero cells
# Experimental: Clinical isolates of HSV-1 and HSV-2 were kindly provided by Prof. M. Pistello, University of Pisa, Italy. HSV-1 and HSV-2 strains were propagated and titrated by plaque assay on Vero cells. A HSV-2 strain with phenotypic resistance to acyclovir was generated by serial passage in the presence of increasing concentrations of acyclovir, as previously described.
# The effect of the rhodanine derivatives on HSV infection was evaluated by plaque reduction assay. Vero cells were pre-plated 24 h in advance in 24-well plates at a density of […]. Increasing concentrations of compounds were mixed with HSV-2 (MOI 0.001 pfu/cell) or HSV-2 acyclovir resistant (MOI 0.001) or HSV-1 (MOI 0.0005) or and incubated for 1 hour at 37°C. The mixtures were subsequently added to the cells, which were then incubated at 37°C for 2 h. The virus inoculum was then removed and the cells washed and overlaid with a medium containing 1.2% methylcellulose (Sigma). After further incubation at 37°C for 24 h (HSV-2 and HSV-2 R Acy) or 48 h (HSV-1), cells were fixed and stained with 0.1% crystal violet in 20% ethanol and viral plaques counted. The effective concentration producing 50% reduction (EC50) and 90% reduction (EC90) in plaque formation was determined using Prism software by comparing drug-treated with wells treated with medium and solvent. The selectivity index (SI) was calculated by dividing the CC50 by the EC50 value.
# All results are presented as the mean values from three independent experiments. The EC50 values for inhibition curves were calculated by regression analysis using the software GraphPad Prism (GraphPad Software, San Diego, California, U.S.A.) by fitting a variable slope-sigmoidal dose–response curve. Acyclovir was purchased from Sigma Aldrich (Milan, Italy).
# [4] = Cytotoxicity on TZM-bl cells (XTT test); type: cell-based; settings: human, read-out: Citotoxicity (TZM-bl cells) CC50
# Experimental: as §1
# [5] = test system: HPV-16 PsVs; assay: HPV-16 inhibition assay in HeLa cells; type: cell-based; settings: up to 50 μM
# Experimental: Plasmids and 293TT cells used for pseudovirus (PsV) production were kindly provided by John Schiller (National Cancer Institute, Bethesda, MD). 293TT cell line, derived from human embryonic kidney cells transformed with the simian virus 40 (SV40) large T antigen, was cultured in DMEM (Gibco-BRL, Gaithersburg, MD) supplemented with heat inactivated 10% FCS (Gibco- BRL), Glutamax-I 1% (Invitrogen, Carlsbad, CA) and nonessential amino acids 1% (Sigma Aldrich, Steinheim, Germany). HPV-16 PsVs were produced as described in Cagno et al 2015. 293TT cells were transfected with plasmid expressing the papillomavirus major and minor capsid proteins (L1 and L2, respectively), together with a reporter plasmid expressing GFP. Capsids were allowed to mature overnight in cell lysate; the clarified supernatant was then loaded on top of a density gradient of 27 to 33 to 39% Optiprep at room temperature for 3 h. The material was centrifuged at 28000 rpm for 16 h at 4°C in an SW41.1 rotor (Beckman Coulter, Inc., Fullerton, CA) and then collected by bottom puncture of the tubes. […] The L1 protein content of PsV stocks was determined by comparison with bovine serum albumin standards in Coomassie-stained SDS-polyacrylamide gels. […]
# [6] = pre-incubation in complete medium containing fetal bovine serum (FBS), read-out: AD8 EC50 a
# [7] = pre-incubation with virus without serum, read-out: AD8 EC50
Compound,"EC50 [1, 6]","EC50 [1, 7]",solubility at 24 h [2],EC50 [3],EC90 [3],"SI (CC50/EC50), HSV-2 [3]",CC50 [4],melting point,antiviral activity on HPV-16 [5]
"O=C(O)c1ccc(-c2ccc(/C=C3\SC(=S)N(c4ccc(F)c(Cl)c4)C3=O)o2)cc1O [Compound 9e, (Z)-4-(5-((3-(3-chloro-4-fluorophenyl)-4-oxo-2-thioxothiazolidin-5-ylidene)methyl)furan-2-yl)-2-hydroxybenzoic acid]",400 ± 14 nM,26 ± 6 nM,0.72 ± 0.12 µg/mL,50.3 ± 10.5 nM,206 ± 85.5 nM,>1988,> 20000 nM,–,–
"O=C(O)c1ccc(-c2ccc(/C=C3\SC(=S)N(CCCc4ccccc4)C3=O)o2)cc1O [Compound 9c, (Z)-2-hydroxy-4-(5-((4-oxo-3-(3-phenylpropyl)-2-thioxothiazolidin-5-ylidene)methyl)furan-2-yl)benzoic acid]",378 ± 15 nM,27.5 ± 4 nM,0.3 ± 0.07 µg/mL,52 ± 21.2 nM,422 ± 225 nM,3936,> 20000 nM,248 °C (dec.),–
"O=C(O)c1ccc(-c2ccc(/C=C3\SC(=S)N(CCc4ccc(F)cc4)C3=O)o2)cc1O [Compound 9a, (Z)-4-(5-((3-(4-fluorophenethyl)-4-oxo-2-thioxothiazolidin-5-ylidene)methyl)furan-2-yl)-2-hydroxybenzoic acid]",116 ± 24 nM,7.5 nM,0.54 ± 0.08 µg/mL,345 ± 168 nM,426 ± 56.3 nM,>869,2200 nM,292 °C (dec.),–
O=C(O)c1ccc(-c2ccc(/C=C3\SC(=S)N(Cc4ccc(Cl)cc4)C3=O)o2)cc1O [Compound 2],650 nM,6.9 nM,0.52 ± 0.13 µg/mL,11.9 ± 5.73 nM,481 ± 299 nM,9400 and 9403,> 20000 nM,–,without any antiviral activity on HPV-16
"CCc1ccc(CCN2C(=O)/C(=C/c3ccc(-c4ccc(C(=O)O)c(O)c4)o3)SC2=S)cc1 [Compound 9d, (Z)-4-(5-((3-(4-ethylphenethyl)-4-oxo-2-thioxothiazolidin-5-ylidene)methyl)furan-2-yl)-2-hydroxybenzoic acid]",186 ± 9 nM,36 ± 3 nM,0.25 ± 0.09 µg/mL,28.7 ± 7.11 nM,140 ± 61.2 nM,600 and 604.3,12300 nM,273 °C (dec.),–
"O=C(O)c1ccc(-c2ccc(/C=C3\SC(=S)N(Cc4ccc(Cl)c(F)c4)C3=O)o2)cc1O [Compound 9f, (Z)-4-(5-((3-(4-chloro-3-fluorobenzyl)-4-oxo-2-thioxothiazolidin-5-ylidene)methyl)furan-2-yl)-2-hydroxybenzoic acid]",560 ± 10 nM,20 ± 4 nM,0.73 ± 0.14 µg/mL,26.4 ± 11.1 nM,153 ± 159 nM,298,> 20000 nM,–,–
O=C(O)c1ccc(-c2ccc(/C=C3\SC(=S)N(Cc4ccc(F)cc4)C3=O)o2)cc1O [Compound 1],1395 ± 10 nM,32.3 ± 3 nM,0.88 ± 0.1 µg/mL,168 ± 143 nM,2110 ± 918 nM,–,> 20000 nM,–,without any antiviral activity on HPV-16
"Cc1ccc(CCN2C(=O)/C(=C/c3ccc(-c4ccc(C(=O)O)c(O)c4)o3)SC2=S)cc1 [Compound 9b, (Z)-2-hydroxy-4-(5-((3-(4-methylphenethyl)-4-oxo-2-thioxothiazolidin-5-ylidene)methyl)furan-2-yl)benzoic acid]",404 ± 20 nM,46.7 ± 9 nM,0.1 ± 0.08 µg/mL,4.89 ± 1.59 nM,57.8 ± 22.6 nM,2209,> 20000 nM,258 °C (dec.),–
